Literature values as cited in patent EP1928431B1, “CONTROLLED RELEASE PHARMACEUTICAL COMPOSITION CONTAINING CARVEDILOL” (Egis Gyógyszergyár Nyilvánosan Múködö Részvénytársaság, priority 2005, dated 2007).
Values after ≈ are worked out from the molar mass of the structure shown. Like-named read-outs stand apart in the source and are kept apart here.

Experiments:
[1] = WO01/35958
[2] = orally administered and absorbed taken as 100%
[3] = in water

For `COc1ccccc1OCCNCC(O)COc1cccc2[nH]c3ccccc3c12` (stereo not drawn) [carvedilol, 1-[9'H-carbazol-4'-yloxy]-3-[{2"-(2""-<methoxy>-phenoxy)-ethyl}-amino]-propan-2-ol], which solubility in water [1] is on record?
The solubility in water was 10 µg/mL (≈ 24.6 µM).

And the absorption ([2]; administered in ileum)?
Its absorption is 28%.

What about the absorption ([2]; administered in the colon) of the same compound?
The absorption was 7%.

What about the absorption ([2]; administered in the jejunum) of the same compound?
The absorption was 56%.

What about the solubility ([3]; pH 1) of the same compound?
Its solubility is 1000 µg/mL (≈ 2460 µM).

And the solubility ([3]; pH 8)?
The solubility was 10 µg/mL (≈ 24.6 µM).
